Data taken from BindingDB's records for doi:10.1021/acsmedchemlett.0c00432 (Vanderbilt University, 2020).

Molecular target: Metabotropic glutamate receptor 7 (Rattus norvegicus, UniProt P35400)
Experiment: Positive allosteric modulation of rat mGlu7 receptor expressed in HEK293 cells co-expressing Gai5 assessed as potentiation of L-AP4-induced calcium mobilization preincubated for 140 secs and treated with EC20 L-AP4 for 125 secs and followed by subsequent addition of EC80 L-AP4 by Fluo-4-AM dye based fluorescence assay

Sequence of Metabotropic glutamate receptor 7 (P35400 whole entry): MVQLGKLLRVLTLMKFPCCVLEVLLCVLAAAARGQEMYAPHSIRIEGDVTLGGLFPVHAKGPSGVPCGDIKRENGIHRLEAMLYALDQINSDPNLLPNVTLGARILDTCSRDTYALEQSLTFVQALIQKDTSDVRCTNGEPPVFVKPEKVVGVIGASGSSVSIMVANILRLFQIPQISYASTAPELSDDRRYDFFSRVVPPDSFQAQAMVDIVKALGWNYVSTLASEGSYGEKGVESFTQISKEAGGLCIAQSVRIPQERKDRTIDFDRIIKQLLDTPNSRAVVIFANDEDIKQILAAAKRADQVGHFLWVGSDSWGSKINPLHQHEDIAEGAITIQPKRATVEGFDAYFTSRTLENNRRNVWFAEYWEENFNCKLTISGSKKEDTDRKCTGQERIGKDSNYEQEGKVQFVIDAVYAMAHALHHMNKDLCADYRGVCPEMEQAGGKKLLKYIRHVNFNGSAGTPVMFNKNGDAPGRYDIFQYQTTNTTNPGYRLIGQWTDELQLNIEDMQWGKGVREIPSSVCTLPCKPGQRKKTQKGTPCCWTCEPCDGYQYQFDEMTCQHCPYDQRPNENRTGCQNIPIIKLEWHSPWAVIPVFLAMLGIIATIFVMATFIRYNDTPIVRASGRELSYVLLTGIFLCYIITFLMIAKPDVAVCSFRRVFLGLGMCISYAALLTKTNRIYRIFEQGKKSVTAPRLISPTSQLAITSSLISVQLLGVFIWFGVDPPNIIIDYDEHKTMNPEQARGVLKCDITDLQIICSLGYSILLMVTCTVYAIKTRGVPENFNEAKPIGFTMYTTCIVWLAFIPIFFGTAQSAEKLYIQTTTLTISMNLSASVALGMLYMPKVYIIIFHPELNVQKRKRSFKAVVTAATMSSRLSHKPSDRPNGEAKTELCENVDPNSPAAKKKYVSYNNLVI

N#Cc1cnc2c(OC3CCOC3)cccc2c1N1CCN(c2ccccc2F)CC1 (stereo unspecified)
EC50: 1540 nM
